Values quoted from earlier work, collected in publication PMC3362725, “An open-label, phase 1 study evaluating safety, tolerability, and pharmacokinetics of linifanib (ABT-869) in Japanese patients with solid tumors” (Cancer Chemotherapy and Pharmacology, 2012).

Set-up: method as in PMID 19720910
Details: non-Japanese Asian patients, 0.10–0.30 mg/kg single dose, mean ± SD, N 31; calculated from ref 14; cited from earlier work

Cc1ccc(F)c(NC(=O)Nc2ccc(-c3cccc4[nH]nc(N)c34)cc2)c1 [linifanib, N-(4-(3-amino-1H-indazol-4-yl)phenyl)-N’-(2-fluoro-5-methylphenyl)urea]
DN AUC24: 0.25 ± 0.10 µg·h/mL/mg | DN C max: 0.020 ± 0.008 µg/mL/mg | T max: 2.94 ± 1.27 h
